How the values were obtained:
Type in all cases: cell-based
BRAF V600E = biological target: T1, BRAF V600E (Homo sapiens, UniProt P15056, V600E); assay: BRAF HiBiT degradation assay, C-terminal HiBiT-tagged BRAF V600E A375 cells (clone 1F10), Nano-Glo HiBiT Lytic assay; conditions: for Dmax: A-375
T1 construct: endogenous C-terminal HiBiT fusion tag on BRAF V600E allele; endogenous in cells; host or cells: A375 clone 1F10 (CRISPR-Cas9 knock-in of the HiBiT tag; parental A375 from ATCC)
Outline: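 Endogenous BRAF V600E-HiBiT A375 (1F10), 10,000 cells/well, 24 h preculture; cpd 11-pt, 1 μM–0.01 nM half-log, n=2, 0.2% DMSO; HiBiT lytic detection 10 min RT; DC50 = fitted conc at Y=50; Obs. Dmax vs DMSO.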

BRAF G469A = biological target: T2, BRAF G469A (Homo sapiens, UniProt P15056, G469A); assay: BRAF HiBiT degradation assay, C-terminal HiBiT-tagged BRAF G469A overexpressed in HCT-116 BRAF−/− cells (clone 34), Nano-Glo HiBiT Lytic assay
T2 construct: Horizon Discovery (HCT-116 BRAF−/− cells); host or cells: HCT-116 BRAF−/− cells, clone 34, lentiviral transduction
From the text: (§1) An A375 cell line expressing a homozygous V600E mutation was purchased from ATCC (Manassas, VA, USA). An A375 clone 1F10 cell line with an endogenous C-terminal HiBiT fusion tag on BRAF V600E allele was generated internally using CRISPR-Cas9 technology and cultured in DMEM, high glucose supplemented with 10% FBS and 1× GlutaMAX. A HCT-116 BRAF−/− cell line overexpressing the C-terminal HiBiT-tagged G466V, G469A, and D594G mutants were generated by lentiviral transduction, externally at Biosettia Inc (San Diego, CA, USA). The stably transfected cells were cultured in RPMI media supplemented with 10% FBS, 1× GlutaMAX, and 0.25 μg/ml puromycin. DMEM medium, RPMI 1640 medium, GlutaMAX, fetal bovine serum (FBS), and puromycin were purchased from Gibco (Grand Island, NY, USA). HCT-116 BRAF−/− cells were purchased from Horizon Discovery (Waterbeach, UK).
(§2) The C-terminal HiBiT tagged mutant BRAF G466V, G469A, and D594G overexpressed in HCT-116 BRAF−/− cells (monoclonal cell line, cell clones 8, 34, and 63, respectively) were seeded at the density of 3,000 cells/well in 30 μL media (RPMI supplemented with 10% FBS and 1× GlutaMAX) in white opaque 384-well plates (Corning #3570) from column 1 to column 23. Wildtype HCT-116 BRAF cells were seeded in column 24 at the same cell density in 30 μL media. Cells were incubated at 37° C. with 5% CO2 for 24 h.
(§3) Intermediate compound dilution series (5-point, ranging from 5 mM to 0.5 μM, 10-fold dilutions in DMSO) were prepared in a source plate (Beckman Coulter cat. no. 001-16128). Final compound dilution series (11-point, ranging from 1 μM to 0.01 nM, half-log dilutions in DMSO) were stamped into the assay plate (Corning #3570, column 1-11 and 12-22) using the Echo Acoustic Liquid Handler (Beckman Coulter). Each compound was plated in duplicate, and the total volume of compound DMSO solution was 60 nL/well (0.2% final DMSO concentration). DMSO was included in wells A23-L23 and A24-L24. The DMSO-treated HiBiT-tagged samples served as Negative Control (NC) and the DMSO-treated wildtype samples served as Background Control (BC) for the HiBiT assay.
(§4) HiBiT signal was measured by a Nano-Glo HiBiT Lytic assay (Promega cat. no. N3050). HiBiT lytic detection reagent (Nano-Glo HiBiT Lytic Buffer with 1:50 Nano-Glo HiBiT Lytic Substrate and 1:100 LgBiT Protein, 40 μL) was added using Bravo. The mixture was incubated at room temperature, in the dark, and with gentle shaking for 10 min. Luminesce units (LU) were read on an EnVision plate reader 2105 (Perkin Elmer).
(§5) Percent protein remaining and viability remaining per sample were calculated as follows: […]
(§6) % Protein remaining values were plotted as a function of compound concentration. XC50 (DC50) values were determined by fitting curves using the following equation:
(§7) For the HiBiT degradation assay, the key parameters reported include: • The dose of compound that produces 50% degradation (DC50 at 50%): • DC50 at 50%: the Fitted X value (Conc.) at Y=50 (response) • Observed Dmax (Obs. Dmax) is the percentage protein degraded at maximal compound effect relative to DMSO-treated control: […]

BRAF D594G = biological target: T3, BRAF D594G (Homo sapiens, UniProt P15056, D594G); assay: BRAF HiBiT degradation assay, C-terminal HiBiT-tagged BRAF D594G overexpressed in HCT-116 BRAF−/− cells (clone 63), Nano-Glo HiBiT Lytic assay
T3 construct: Horizon Discovery (HCT-116 BRAF−/− cells); host or cells: HCT-116 BRAF−/− cells, clone 63, lentiviral transduction
From the text: as §1, §2, §3, §4, §5, §6, §7

BRAF G466V = biological target: T4, BRAF G466V (Homo sapiens, UniProt P15056, G466V); assay: BRAF HiBiT degradation assay, C-terminal HiBiT-tagged BRAF G466V overexpressed in HCT-116 BRAF−/− cells (clone 8), Nano-Glo HiBiT Lytic assay
T4 construct: Horizon Discovery (HCT-116 BRAF−/− cells); host or cells: HCT-116 BRAF−/− cells, clone 8, lentiviral transduction
From the text: as §1, §2, §3, §4, §5, §6, §7

[1] = A375 (BRAF V600E), DC50 at 50%: fitted conc. at Y=50
[2] = A375 (BRAF V600E), percentage protein degraded at maximal compound effect relative to DMSO
[3] = Class 2, BRAF G469A, DC50 at 50%: fitted conc. at Y=50
[4] = HCT-116, Class 2, BRAF G469A, percentage protein degraded at maximal compound effect relative to DMSO
[5] = BRAF D594G, DC50 at 50%: fitted conc. at Y=50
[6] = HCT-116, BRAF D594G, percentage protein degraded at maximal compound effect relative to DMSO
[7] = BRAF G466V, DC50 at 50%: fitted conc. at Y=50
[8] = HCT-116, BRAF G466V, percentage protein degraded at maximal compound effect relative to DMSO
[9] = A375 (BRAF V600E, Class 1), DC50 at 50% degradation
[10] = A375 (BRAF V600E, Class 1), observed Dmax, % protein degraded relative to DMSO control
[11] = BRAF G469A (Class 2), HCT-116 BRAF−/− cells, DC50 at 50% degradation
[12] = BRAF G469A (Class 2), HCT-116 BRAF−/− cells, observed Dmax relative to DMSO control
[13] = BRAF D594G (Class 3), HCT-116 BRAF−/− cells, DC50 at 50% degradation
[14] = BRAF D594G (Class 3), HCT-116 BRAF−/− cells, observed Dmax relative to DMSO control
[15] = BRAF G466V (Class 3), HCT-116 BRAF−/− cells, DC50 at 50% degradation
[16] = BRAF G466V (Class 3), HCT-116 BRAF−/− cells, observed Dmax relative to DMSO control

T1 sequence (P15056 whole entry V600E, the tested form may be a part): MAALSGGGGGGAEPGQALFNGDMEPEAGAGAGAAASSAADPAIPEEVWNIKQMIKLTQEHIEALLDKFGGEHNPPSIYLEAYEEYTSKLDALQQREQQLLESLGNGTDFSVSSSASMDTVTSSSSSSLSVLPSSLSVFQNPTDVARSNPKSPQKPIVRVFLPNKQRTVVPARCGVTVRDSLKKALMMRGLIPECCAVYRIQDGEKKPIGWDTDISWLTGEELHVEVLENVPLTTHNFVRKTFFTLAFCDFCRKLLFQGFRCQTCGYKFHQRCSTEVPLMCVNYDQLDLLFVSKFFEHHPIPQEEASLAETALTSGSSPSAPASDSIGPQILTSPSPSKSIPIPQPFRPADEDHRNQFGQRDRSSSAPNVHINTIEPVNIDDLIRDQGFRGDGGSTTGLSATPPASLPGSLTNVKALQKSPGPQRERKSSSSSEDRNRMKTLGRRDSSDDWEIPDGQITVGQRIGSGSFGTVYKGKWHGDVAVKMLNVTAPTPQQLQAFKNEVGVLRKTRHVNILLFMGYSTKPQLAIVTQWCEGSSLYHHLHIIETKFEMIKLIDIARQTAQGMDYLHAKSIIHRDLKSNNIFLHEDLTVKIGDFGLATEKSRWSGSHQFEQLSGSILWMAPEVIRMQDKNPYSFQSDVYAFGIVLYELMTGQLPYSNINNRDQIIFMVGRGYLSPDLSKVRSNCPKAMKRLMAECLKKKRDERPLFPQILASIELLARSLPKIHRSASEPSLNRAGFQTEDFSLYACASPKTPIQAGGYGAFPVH
T3 sequence (P15056 whole entry D594G): as the sequence (P15056 whole entry V600E, the tested form may be a part) above, with D594G, E600V counted along it
T2 sequence (P15056 whole entry G469A): as the sequence (P15056 whole entry V600E, the tested form may be a part) above, with G469A, E600V counted along it
T4 sequence (P15056 whole entry G466V): as the sequence (P15056 whole entry V600E, the tested form may be a part) above, with G466V, E600V counted along it

Row | DC50 (BRAF V600E; [1]) [nM] | Dmax (BRAF V600E; [2]) [%] | DC50 (BRAF G469A; [3]) [nM] | Dmax (BRAF G469A; [4]) [%] | DC50 (BRAF D594G; [5]) [nM] | Dmax (BRAF D594G; [6]) [%] | DC50 (BRAF G466V; [7]) [nM] | Dmax (BRAF G466V; [8]) [%] | DC50 (BRAF V600E; [9]) [nM] | Dmax (BRAF V600E; [10]) [%] | DC50 (BRAF G469A; [11]) [nM] | Dmax (BRAF G469A; [12]) [%] | DC50 (BRAF D594G; [13]) [nM] | Dmax (BRAF D594G; [14]) [%] | DC50 (BRAF G466V; [15]) [nM] | Dmax (BRAF G466V; [16]) [%] | Structure (SMILES)
1 | < 10 | > 70 | 10 to 50 | 30 to 70 | < 10 | 30 to 70 | < 10 | 30 to 70 | – | – | – | – | – | – | – | – | CCCS(=O)(=O)Nc1cccc(-c2nc(C3CCN(C(=O)C4CCN(C(=O)C5CCN(c6ccc(C7CCC(=O)NC7=O)cn6)CC5)CC4)CC3)sc2-c2ccnc(N[C@H](C)CO)n2)c1F (mixture of isomers) [Compound 180, N-[3-(2-{1-[1-(1-{5-[(3RS)-2,6-dioxopiperidin-3-yl]pyridin-2-yl}piperidine-4-carbonyl)piperidine-4-carbonyl]piperidin-4-yl}-5-(2-{[(2R)-1-hydroxypropan-2-yl]amino}pyrimidin-4-yl)-1,3-thiazol-4-yl)-2-fluorophenyl]propane-1-sulfonamide]
2 | – | – | – | – | – | – | – | – | < 10 | > 70 | < 10 | > 70 | < 10 | > 70 | < 10 | > 70 | C[C@@H]1CN(c2ccc(-n3cc(-c4cc(Cl)cc(NS(=O)(=O)N5CC[C@@H](F)C5)c4F)c(-c4ccncc4)n3)nc2)CCN1CC1CCN(c2ccc(C3CCC(=O)NC3=O)cn2)CC1 (mixture of isomers) [Compound 321, (3R)—N-[5-chloro-3-(1-{5-[(3R)-4-[(1-{5-[(3RS)-2,6-dioxopiperidin-3-yl]pyridin-2-yl}piperidin-4-yl)methyl]-3-methylpiperazin-1-yl]pyridin-2-yl}-3-(pyridin-4-yl)-1H-pyrazol-4-yl)-2-fluorophenyl]-3-fluoropyrrolidine-1-sulfonamide]
3 | – | – | – | – | – | – | – | – | < 10 | > 70 | 50 to 500 | 30 to 70 | < 10 | 30 to 70 | < 10 | > 70 | C[C@@H]1CN(c2ccc(-n3cc(-c4cc(Cl)cc(NS(=O)(=O)N5CCCC5)c4F)c(-c4ccncc4)n3)cc2)CCN1CC1CCN(c2ccc(N3CCC(=O)NC3=O)cc2)CC1 [Compound 319, N-[5-chloro-3-(1-{4-[(3R)-4-({1-[4-(2,4-dioxo-1,3-diazinan-1-yl)phenyl]piperidin-4-yl}methyl)-3-methylpiperazin-1-yl]phenyl}-3-(pyridin-4-yl)-1H-pyrazol-4-yl)-2-fluorophenyl]pyrrolidine-1-sulfonamide]
4 | – | – | – | – | – | – | – | – | < 10 | > 70 | 10 to 50 | 30 to 70 | < 10 | 30 to 70 | < 10 | > 70 | CCCS(=O)(=O)Nc1cc(Cl)cc(-c2cn(-c3ccc(N4CCN(CC5CCN(c6ccc([C@H]7CCC(=O)NC7=O)cc6)CC5)[C@H](C)C4)cc3)nc2-c2ccncc2)c1F [Compound 275, N-[5-chloro-3-(1-{4-[(3R)-4-[(1-{4-[(3R)-2,6-dioxopiperidin-3-yl]phenyl}piperidin-4-yl)methyl]-3-methylpiperazin-1-yl]phenyl}-3-(pyridin-4-yl)-1H-pyrazol-4-yl)-2-fluorophenyl]propane-1-sulfonamide]
5 | – | – | – | – | – | – | – | – | < 10 | > 70 | > 500 | 30 to 70 | < 10 | 30 to 70 | 10 to 50 | 30 to 70 | O=C1CCN(c2ccc(N3CCC(CN4CCN(c5cnc(-n6cc(-c7cc(Cl)cc(NS(=O)(=O)N8CCCC8)c7F)c(-c7ccncc7)n6)nc5)CC4)CC3)cc2)C(=O)N1 [Compound 358, N-[5-chloro-3-(1-{5-[4-({1-[4-(2,4-dioxo-1,3-diazinan-1-yl)phenyl]piperidin-4-yl}methyl)piperazin-1-yl]pyrimidin-2-yl}-3-(pyridin-4-yl)-1H-pyrazol-4-yl)-2-fluorophenyl]pyrrolidine-1-sulfonamide]
6 | 10 to 50 | > 70 | > 500 | < 30 | > 500 | 30 to 70 | > 500 | 30 to 70 | – | – | – | – | – | – | – | – | CCCS(=O)(=O)Nc1cccc(-c2nc(C(C)(C)C)sc2-c2ccnc(Nc3ccc(C4CCN(CC[C@H]5CCN(c6ccc(C7CCC(=O)NC7=O)cn6)C5)CC4)cc3)n2)c1F (mixture of isomers) [Compound 173, N-{3-[2-tert-butyl-5-(2-{[4-(1-{2-[(3S)-1-{5-[(3RS)-2,6-dioxopiperidin-3-yl]pyridin-2-yl}pyrrolidin-3-yl]ethyl}piperidin-4-yl)phenyl]amino}pyrimidin-4-yl)-1,3-thiazol-4-yl]-2-fluorophenyl}propane-1-sulfonamide]
7 | < 10 | > 70 | > 500 | 30 to 70 | < 10 | 30 to 70 | 10 to 50 | 30 to 70 | – | – | – | – | – | – | – | – | CCCS(=O)(=O)Nc1cccc(-c2nc(C3(C)CCN(C(=O)CN4CCC5(CC4)CN(c4ccc6c(c4)C(=O)N(C4CCC(=O)NC4=O)C6=O)C5)CC3)sc2-c2ccnc(N)n2)c1F (racemic) [Compound 238, Rac-N-{3-[5-(2-aminopyrimidin-4-yl)-2-{1-[2-(2-{2-[(3R)-2,6-dioxopiperidin-3-yl]-1,3-dioxo-2,3-dihydro-1H-isoindol-5-yl}-2,7-diazaspiro[3.5]nonan-7-yl)acetyl]-4-methylpiperidin-4-yl}-1,3-thiazol-4-yl]-2-fluorophenyl}propane-1-sulfonamide]
